Results as given in ChEMBL document CHEMBL3885881, “DrugMatrix”.
Where “and” joins values, the source holds several entries; their conditions need not be identical. Equal entries are not always repeated.

Organism: Rattus norvegicus
Assay: DrugMatrix - Regimen: Daily Repeat
Assay type: toxicity, organism-based, Sprague-Dawley
Parameters: regimen Daily Repeat, gender Male, age 6-8 weeks
Conditions: in vivo, po, route oral GAVAGE, vehicle 100 % WATER; for ABSOLUTE BASOPHIL / ABSOLUTE LYMPHOCYTE / ABSOLUTE SEGMENTED NEUTROPHIL / BASOPHIL / EOSINOPHIL / ERYTHROCYTE COUNT / HEMATOCRIT / LEUKOCYTE COUNT / LYMPHOCYTE / MEAN CORPUSCULAR HEMOGLOBIN / MEAN CORPUSCULAR HEMOGLOBIN CONCENTRATION / MEAN CORPUSCULAR VOLUME / MONOCYTE / NEUTROPHIL / NUCLEATED RED BLOOD CELLS / PLATELET COUNT / ABSOLUTE MONOCYTE / ABSOLUTE EOSINOPHIL: tissue Blood; for ALANINE AMINOTRANSFERASE / ALBUMIN / ALKALINE PHOSPHATASE / ASPARTATE AMINOTRANSFERASE / BLOOD UREA NITROGEN / CARBON DIOXIDE / CHLORIDE / CHOLESTEROL / CREATINE PHOSPHOKINASE / CREATININE / GLUCOSE / LACTATE DEHYDROGENASE / LIPASE / PHOSPHORUS / POTASSIUM / SODIUM / TOTAL BILIRUBIN / TOTAL PROTEIN / URIC ACID: tissue Plasma
[1] = 0 mg/kg, 72 h, dose level Control, time 3 day
[2] = 0 mg/kg, 120 h, dose level Control, time 5 day
[3] = 235 mg/kg, 72 h, dose level Low, time 3 day
[4] = 235 mg/kg, 120 h, dose level Low, time 5 day
[5] = 850 mg/kg, 72 h, dose level M1, time 3 day

## CCCC(CCC)C(=O)O [VALPROIC ACID]
[1]
  ABSOLUTE BASOPHIL: 0 CELLS/uL
  ABSOLUTE LYMPHOCYTE: 10696 CELLS/uL and 11257.17 CELLS/uL
  ABSOLUTE SEGMENTED NEUTROPHIL: 1045.33 CELLS/uL and 1220.33 CELLS/uL
  BASOPHIL: 0%
  EOSINOPHIL: 1% and 0.33%
  ERYTHROCYTE COUNT: 5.87 x10E6/uL and 5 x10E6/uL
  HEMATOCRIT: 38.5% and 32.62%
  LEUKOCYTE COUNT: 12.07 x10E3/uL and 12.58 x10E3/uL
  LYMPHOCYTE: 88.33% and 89%
  MEAN CORPUSCULAR HEMOGLOBIN: 23.47 pg and 25.67 pg
  MEAN CORPUSCULAR HEMOGLOBIN CONCENTRATION: 35.7 G/DL and 39.35 G/DL
  MEAN CORPUSCULAR VOLUME: 65.63 fL and 65.23 fL
  MONOCYTE: 2% and 0.67%
  NEUTROPHIL: 8.67% and 10%
  NUCLEATED RED BLOOD CELLS: 0 /100WBC
  PLATELET COUNT: 1151.33 x10E3/uL and 1162.5 x10E3/uL
  ALANINE AMINOTRANSFERASE: 60.67 u/L and 45.33 u/L
  ALBUMIN: 4.23 G/DL and 3.95 G/DL
  ALKALINE PHOSPHATASE: 377.67 u/L and 356.17 u/L
  ASPARTATE AMINOTRANSFERASE: 85.33 u/L and 81 u/L
  BLOOD UREA NITROGEN: 15 mg/dL and 11 mg/dL
  CARBON DIOXIDE: 37 mmol/L and 29.83 mmol/L
  CHLORIDE: 97.67 MEQ/L and 97.8 MEQ/L
  CHOLESTEROL: 70.67 mg/dL and 65.17 mg/dL
  CREATINE PHOSPHOKINASE: 361.67 u/L and 211.33 u/L
  CREATININE: 0.18 mg/dL and 0.11 mg/dL
  GLUCOSE: 154 mg/dL and 164.67 mg/dL
  LACTATE DEHYDROGENASE: 99 u/L and 143.17 u/L
  LIPASE: 12.67 u/L and 10.17 u/L
  PHOSPHORUS: 9.53 mg/dL and 10.88 mg/dL
  POTASSIUM: 5.55 MEQ/L and 6.08 MEQ/L
  SODIUM: 143.1 MEQ/L and 141.54 MEQ/L
  TOTAL BILIRUBIN: 0.2 mg/dL and 0.23 mg/dL
  TOTAL PROTEIN: 5.97 G/DL and 5.65 G/DL
  URIC ACID: 0.77 mg/dL and 1 mg/dL
[2]
  ABSOLUTE BASOPHIL: 0 CELLS/uL
  ABSOLUTE LYMPHOCYTE: 9535 CELLS/uL and 9267.83 CELLS/uL
  ABSOLUTE MONOCYTE: 182 CELLS/uL and 194.33 CELLS/uL
  ABSOLUTE SEGMENTED NEUTROPHIL: 783 CELLS/uL and 572.5 CELLS/uL
  BASOPHIL: 0%
  EOSINOPHIL: 0% and 0.33%
  ERYTHROCYTE COUNT: 5.35 x10E6/uL and 5.41 x10E6/uL
  HEMATOCRIT: 34.17% and 36.17%
  LEUKOCYTE COUNT: 10.5 x10E3/uL and 10.08 x10E3/uL
  LYMPHOCYTE: 89.67% and 92.17%
  MEAN CORPUSCULAR HEMOGLOBIN: 24.67 pg and 25.73 pg
  MEAN CORPUSCULAR HEMOGLOBIN CONCENTRATION: 38.57 G/DL and 38.45 G/DL
  MEAN CORPUSCULAR VOLUME: 63.9 fL and 66.97 fL
  MONOCYTE: 1.67% and 1.83%
  NEUTROPHIL: 8.67% and 5.67%
  PLATELET COUNT: 990 x10E3/uL and 1122.33 x10E3/uL
  ALANINE AMINOTRANSFERASE: 46.67 u/L and 52.83 u/L
  ALBUMIN: 3.97 G/DL and 4.12 G/DL
  ALKALINE PHOSPHATASE: 343.67 u/L and 367.33 u/L
  ASPARTATE AMINOTRANSFERASE: 71 u/L and 88 u/L
  BLOOD UREA NITROGEN: 11.67 mg/dL and 12.67 mg/dL
  CARBON DIOXIDE: 27 mmol/L and 33.67 mmol/L
  CHLORIDE: 105.33 MEQ/L and 97 MEQ/L
  CHOLESTEROL: 70.67 mg/dL and 67.5 mg/dL
  CREATINE PHOSPHOKINASE: 208.67 u/L and 358.67 u/L
  CREATININE: 0.1 mg/dL and 0.14 mg/dL
  GLUCOSE: 161.33 mg/dL and 152.33 mg/dL
  LIPASE: 9.33 u/L and 10.5 u/L
  PHOSPHORUS: 12.7 mg/dL and 10.63 mg/dL
  POTASSIUM: 5.59 MEQ/L and 5.99 MEQ/L
  SODIUM: 147.1 MEQ/L and 141.85 MEQ/L
  TOTAL BILIRUBIN: 0.17 mg/dL and 0.2 mg/dL
  TOTAL PROTEIN: 5.97 G/DL and 6.18 G/DL
  URIC ACID: 0.73 mg/dL and 0.52 mg/dL
[3]
  ABSOLUTE BASOPHIL: 0 CELLS/uL
  ABSOLUTE EOSINOPHIL: 39.33 CELLS/uL
  ABSOLUTE LYMPHOCYTE: 3794.33 CELLS/uL
  ABSOLUTE MONOCYTE: 121.33 CELLS/uL
  ABSOLUTE SEGMENTED NEUTROPHIL: 678.33 CELLS/uL
  BASOPHIL: 0%
  EOSINOPHIL: 0.67%
  ERYTHROCYTE COUNT: 5.06 x10E6/uL
  HEMATOCRIT: 32.73%
  LEUKOCYTE COUNT: 4.63 x10E3/uL
  LYMPHOCYTE: 81.33%
  MEAN CORPUSCULAR HEMOGLOBIN: 25.03 pg
  MEAN CORPUSCULAR HEMOGLOBIN CONCENTRATION: 38.63 G/DL
  MEAN CORPUSCULAR VOLUME: 64.7 fL
  MONOCYTE: 2.67%
  NEUTROPHIL: 15.33%
  NUCLEATED RED BLOOD CELLS: 0 /100WBC
  PLATELET COUNT: 772 x10E3/uL
  ALANINE AMINOTRANSFERASE: 57 u/L
  ALBUMIN: 4.1 G/DL
  ALKALINE PHOSPHATASE: 212.67 u/L
  ASPARTATE AMINOTRANSFERASE: 81 u/L
  BLOOD UREA NITROGEN: 11 mg/dL
  CARBON DIOXIDE: 37.33 mmol/L
  CHLORIDE: 98.33 MEQ/L
  CHOLESTEROL: 62 mg/dL
  CREATINE PHOSPHOKINASE: 233 u/L
  CREATININE: 0.3 mg/dL
  GLUCOSE: 154 mg/dL
  LACTATE DEHYDROGENASE: 73 u/L
  LIPASE: 10 u/L
  PHOSPHORUS: 9.7 mg/dL
  POTASSIUM: 5.09 MEQ/L
  SODIUM: 143.63 MEQ/L
  TOTAL BILIRUBIN: 0.13 mg/dL
  TOTAL PROTEIN: 5.57 G/DL
  URIC ACID: 0.47 mg/dL
[4]
  ABSOLUTE BASOPHIL: 0 CELLS/uL
  ABSOLUTE EOSINOPHIL: 0 CELLS/uL
  ABSOLUTE LYMPHOCYTE: 6770.33 CELLS/uL
  ABSOLUTE MONOCYTE: 195 CELLS/uL
  ABSOLUTE SEGMENTED NEUTROPHIL: 868 CELLS/uL
  BASOPHIL: 0%
  EOSINOPHIL: 0%
  ERYTHROCYTE COUNT: 5.27 x10E6/uL
  HEMATOCRIT: 33.47%
  LEUKOCYTE COUNT: 7.83 x10E3/uL
  LYMPHOCYTE: 89%
  MEAN CORPUSCULAR HEMOGLOBIN: 24.47 pg
  MEAN CORPUSCULAR HEMOGLOBIN CONCENTRATION: 38.57 G/DL
  MEAN CORPUSCULAR VOLUME: 63.43 fL
  MONOCYTE: 2.33%
  NEUTROPHIL: 8.67%
  NUCLEATED RED BLOOD CELLS: 0 /100WBC
  PLATELET COUNT: 955 x10E3/uL
  ALANINE AMINOTRANSFERASE: 52.33 u/L
  ALBUMIN: 4.03 G/DL
  ALKALINE PHOSPHATASE: 290.67 u/L
  ASPARTATE AMINOTRANSFERASE: 77.33 u/L
  BLOOD UREA NITROGEN: 12 mg/dL
  CARBON DIOXIDE: 28.67 mmol/L
  CHLORIDE: 103.67 MEQ/L
  CHOLESTEROL: 71.67 mg/dL
  CREATINE PHOSPHOKINASE: 272 u/L
  CREATININE: 0.22 mg/dL
  GLUCOSE: 144.33 mg/dL
  LACTATE DEHYDROGENASE: 50.67 u/L
  LIPASE: 9.33 u/L
  PHOSPHORUS: 10.47 mg/dL
  POTASSIUM: 5.47 MEQ/L
  SODIUM: 144.07 MEQ/L
  TOTAL BILIRUBIN: 0.13 mg/dL
  TOTAL PROTEIN: 5.93 G/DL
  URIC ACID: 0.43 mg/dL
[5]
  ABSOLUTE BASOPHIL: 0 CELLS/uL
  ABSOLUTE EOSINOPHIL: 40.67 CELLS/uL
